{"source": "patent US7935507B2", "about": "“Method for testing substances on biomatrices” (Humanautocell GmbH, priority 2004, dated 2011)", "tested_on": "CYP2E1", "settings": "tissue equivalent strips (hepatocytes + Langerhan's islet cells on matrix) in William's medium E, 37° C.; benzene 0.005, 0.01, 0.02, 0.05 and 0.1 mM, several hours; compared with basic activity before addition", "description": "The strips are placed in approximately 1 liter of William's medium E, which is agitated. Adequate gas exchange is ensured, and the temperature of the medium is maintained at 37° C.\nAfter the system has equilibrated, a first strip of tissue equivalent is removed and the CYP2E1 activity thereon is determined via the EFCOD test method. Using the said method, the CYP2E1mediated O-dealkylation of 7-ethoxy-4-trifluoromethylcoumarin to 7-hydroxy-4-trifluoromethylcoumarin is determined.\nThe benzene is allowed to act for several hours, while maintaining the medium in agitation and ensuring the gas exchange. Then the CYP2E1 activity is determined once again in the way described in the foregoing.", "data": [{"compound": "c1ccccc1", "note": "[benzene]", "values": [{"measurement": "CYP2E1 activity (O-dealkylation of 7-ethoxy-4-trifluoromethylcoumarin to 7-hydroxy-4-trifluoromethylcoumarin)", "value": "distinct increase of the basic activity with increasing benzene concentration"}]}]}
